Measurements: ChEMBL document CHEMBL4024707, “Using gene expression database to uncover biology functions of 1,4-disubstituted 1,2,3-triazole analogues synthesized via a copper (I)-catalyzed reaction” (Eur J Med Chem, 2017)

What was measured:
Hep 3B2 [1] = test: Induction of autophagy in human Hep3B cells at 20 uM after 72 hrs by acridine orange staining based flow cytometry (reference value: 1.1 to 4%); type: functional
Hep 3B2 [2] = test: Induction of autophagy in human Hep3B cells at 10 uM after 48 hrs by acridine orange staining based flow cytometry (reference value: 0.9 to 3%); type: functional
Hep 3B2 [3] = test: Cell cycle arrest in human Hep3B cells assessed as accumulation at sub-G1 phase at 2.5 uM after 48 hrs by propidium iodide staining based flow cytometry (reference value: 1.5 to 6.5%); type: functional
Hep 3B2 [4] = test: Cell cycle arrest in human Hep3B cells assessed as accumulation at sub-G1 phase at 2.5 uM after 72 hrs by propidium iodide staining based flow cytometry (reference value: 0.6 to 3.3 %); type: functional
Hep 3B2 [5] = test: Induction of autophagy in human Hep3B cells at 20 uM after 24 hrs by acridine orange staining based flow cytometry (reference value: 1.1 to 1.3%); type: functional
Hep 3B2 [6] = test: Cell cycle arrest in human Hep3B cells assessed as accumulation at sub-G1 phase at 5 uM after 48 hrs by propidium iodide staining based flow cytometry (reference value: 1.5 to 6.5%); type: functional
Hep 3B2 [7] = test: Cell cycle arrest in human Hep3B cells assessed as accumulation at S phase at 2.5 uM after 72 hrs by propidium iodide staining based flow cytometry (reference value: 16.4 to 21.1%); type: functional
Hep 3B2 [8] = test: Induction of autophagy in human Hep3B cells at 2.5 uM after 72 hrs by acridine orange staining based flow cytometry (reference value: 1.1 to 4%); type: functional
Hep 3B2 [9] = test: Induction of autophagy in human Hep3B cells at 2.5 uM after 24 hrs by acridine orange staining based flow cytometry (reference value: 1.1 to 1.3%); type: functional
Hep 3B2 [10] = test: Cell cycle arrest in human Hep3B cells assessed as accumulation at S phase at 5 uM after 72 hrs by propidium iodide staining based flow cytometry (reference value: 16.4 to 21.1%); type: functional
Hep 3B2 [11] = test: Cell cycle arrest in human Hep3B cells assessed as accumulation at sub-G1 phase at 2.5 uM after 24 hrs by propidium iodide staining based flow cytometry (reference value: 1.9 to 3.6%); type: functional
Hep 3B2 [12] = test: Cell cycle arrest in human Hep3B cells assessed as accumulation at sub-G1 phase at 5 uM after 72 hrs by propidium iodide staining based flow cytometry (reference value: 0.6 to 3.3%); type: functional
Hep 3B2 [13] = test: Cell cycle arrest in human Hep3B cells assessed as accumulation at G0/G1 phase at 20 uM after 48 hrs by propidium iodide staining based flow cytometry (reference value: 39.7 to 40.4%); type: functional
Hep 3B2 [14] = test: Cell cycle arrest in human Hep3B cells assessed as accumulation at S phase at 5 uM after 24 hrs by propidium iodide staining based flow cytometry (reference value: 22.6 to 27.1%); type: functional
Hep 3B2 [15] = test: Induction of autophagy in human Hep3B cells at 2.5 uM after 48 hrs by acridine orange staining based flow cytometry (reference value: 0.9 to 3%); type: functional
Hep 3B2 [16] = test: Induction of autophagy in human Hep3B cells at 20 uM after 48 hrs by acridine orange staining based flow cytometry (reference value: 0.9 to 3%); type: functional
Hep 3B2 [17] = test: Cell cycle arrest in human Hep3B cells assessed as accumulation at G0/G1 phase at 20 uM after 72 hrs by propidium iodide staining based flow cytometry (reference value: 41.6 to 46.2%); type: functional
Hep 3B2 [18] = test: Induction of autophagy in human Hep3B cells at 5 uM after 72 hrs by acridine orange staining based flow cytometry (reference value: 1.1 to 4%); type: functional
Hep 3B2 [19] = test: Cell cycle arrest in human Hep3B cells assessed as accumulation at sub-G1 phase at 10 uM after 72 hrs by propidium iodide staining based flow cytometry (reference value: 0.6 to 3.3%); type: functional
Hep 3B2 [20] = test: Cell cycle arrest in human Hep3B cells assessed as accumulation at S phase at 20 uM after 48 hrs by propidium iodide staining based flow cytometry (reference value: 20.8 to 24%); type: functional
Hep 3B2 [21] = test: Cell cycle arrest in human Hep3B cells assessed as accumulation at sub-G1 phase at 20 uM after 24 hrs by propidium iodide staining based flow cytometry (reference value: 1.9 to 3.6%); type: functional
Hep 3B2 [22] = test: Induction of autophagy in human Hep3B cells at 10 uM after 24 hrs by acridine orange staining based flow cytometry (reference value: 1.1 to 1.3%); type: functional
Hep 3B2 [23] = test: Cell cycle arrest in human Hep3B cells assessed as accumulation at sub-G1 phase at 10 uM after 24 hrs by propidium iodide staining based flow cytometry (reference value: 1.9 to 3.6%); type: functional
Hep 3B2 [24] = test: Cell cycle arrest in human Hep3B cells assessed as accumulation at G0/G1 phase at 20 uM after 24 hrs by propidium iodide staining based flow cytometry (reference value: 36.3 to 39.0%); type: functional
Hep 3B2 [25] = test: Cell cycle arrest in human Hep3B cells assessed as accumulation at sub-G1 phase at 20 uM after 72 hrs by propidium iodide staining based flow cytometry (reference value: 0.6 to 3.3%); type: functional
Hep 3B2 [26] = test: Cell cycle arrest in human Hep3B cells assessed as accumulation at sub-G1 phase at 10 uM after 48 hrs by propidium iodide staining based flow cytometry (reference value: 1.5 to 6.5%); type: functional
Hep 3B2 [27] = test: Induction of autophagy in human Hep3B cells at 5 uM after 24 hrs by acridine orange staining based flow cytometry (reference value: 1.1 to 1.3%); type: functional
Hep 3B2 [28] = test: Induction of autophagy in human Hep3B cells at 2.5 to 20 uM by acridine orange staining based flow cytometry; type: functional, cell-based; conditions: TDE = time-dependent effect
Hep 3B2 [29] = test: Cell cycle arrest in human Hep3B cells assessed as accumulation at sub-G1 phase at 5 uM after 24 hrs by propidium iodide staining based flow cytometry (reference value: 1.9 to 3.6%); type: functional
Hep 3B2 [30] = test: Cell cycle arrest in human Hep3B cells assessed as accumulation at G2/M phase at 20 uM after 72 hrs by propidium iodide staining based flow cytometry (reference value: 28.7 to 32.3%); type: functional
Hep 3B2 [31] = test: Cell cycle arrest in human Hep3B cells assessed as accumulation at G2/M phase at 5 uM after 72 hrs by propidium iodide staining based flow cytometry (reference value: 28.7 to 32.3%); type: functional
Hep 3B2 [32] = test: Induction of autophagy in human Hep3B cells at 5 uM after 48 hrs by acridine orange staining based flow cytometry (reference value: 0.9 to 3%); type: functional
Hep 3B2 [33] = test: Cell cycle arrest in human Hep3B cells assessed as accumulation at S phase at 20 uM after 24 hrs by propidium iodide staining based flow cytometry (reference value: 22.6 to 27.1%); type: functional
[34] = Growth inhibition of HUVEC at 25 uM after 24 hrs by MTT assay relative to control; type: cell-based; conditions: human, HUVEC cells; read-out: GI
HUVEC = test: Cytotoxicity against HUVEC after 48 hrs by MTT assay; type: cell-based; conditions: Homo sapiens
Hep 3B2 [35] = test: Cytotoxicity against human Hep3B cells at 20 uM after 48 hrs by MTT assay relative to control; type: functional

COc1ccc(CNC(=O)Nc2ncc([N+](=O)[O-])s2)cc1
Activity (Hep 3B2 [1]): 15.5%
Activity (Hep 3B2 [2]): 5.8%
Activity (Hep 3B2 [3]): 3.4%
Activity (Hep 3B2 [4]): 1.6%
Activity (Hep 3B2 [5]): 8.9%
Activity (Hep 3B2 [6]): 5%
Activity (Hep 3B2 [7]): 21.1%
Activity (Hep 3B2 [8]): 6.4%
Activity (Hep 3B2 [9]): 4.7%
Activity (Hep 3B2 [10]): 21.7%
Activity (Hep 3B2 [11]): 3.1%
Activity (Hep 3B2 [12]): 2.4%
Activity (Hep 3B2 [13]): 37.8%
Activity (Hep 3B2 [14]): 25%
Activity (Hep 3B2 [15]): 8.1%
Activity (Hep 3B2 [16]): 5.5%
Activity (Hep 3B2 [17]): 43.6%
Activity (Hep 3B2 [18]): 10.9%
Activity (Hep 3B2 [19]): 1.3%
Activity (Hep 3B2 [20]): 20%
Activity (Hep 3B2 [21]): 4.7%
Activity (Hep 3B2 [22]): 5.9%
Activity (Hep 3B2 [23]): 5%
Activity (Hep 3B2 [24]): 33%
Activity (Hep 3B2 [25]): 2.1%
Activity (Hep 3B2 [26]): 3.3%
Activity (Hep 3B2 [27]): 5.3%
Activity (Hep 3B2 [28]): Tde
Activity (Hep 3B2 [29]): 4.2%
Activity (Hep 3B2 [30]): 34.9%
Activity (Hep 3B2 [31]): 33.9%
Activity (Hep 3B2 [32]): 6.3%
Activity (Hep 3B2 [33]): 25.1%

O=C1COc2ccccc2N1Cc1cn(CCC2OCCO2)nn1
Activity (Hep 3B2 [1]): 57%
Activity (Hep 3B2 [2]): 20.3%
Activity (Hep 3B2 [3]): 6.5%
inhibition at 24 h, 25 µM [34]: 23.8%
Activity (Hep 3B2 [4]): 7.9%
Activity (Hep 3B2 [5]): 5.5%
IC50 (HUVEC): 115 µM
Activity (Hep 3B2 [6]): 14.2%
Activity (Hep 3B2 [8]): 1.9%
Activity (Hep 3B2 [9]): 1.3%
Activity (Hep 3B2 [11]): 6.2%
Activity (Hep 3B2 [12]): 18%
Activity (Hep 3B2 [15]): 1.9%
Activity (Hep 3B2 [16]): 37%
Activity (Hep 3B2 [18]): 12.8%
Activity (Hep 3B2 [19]): 54%
Activity (Hep 3B2 [35]): 53.4%
Activity (Hep 3B2 [21]): 34.1%
Activity (Hep 3B2 [22]): 2.4%
Activity (Hep 3B2 [23]): 22.4%
Activity (Hep 3B2 [25]): 65.7%
Activity (Hep 3B2 [26]): 37.4 - 41.4%
Activity (Hep 3B2 [27]): 1.6%
Activity (Hep 3B2 [28]): Tde
Activity (Hep 3B2 [29]): 12.4%
Activity (Hep 3B2 [32]): 5.1%

CNC(=O)c1cc(Oc2ccc(NC(=O)Nc3ccc(Cl)c(C(F)(F)F)c3)cc2)ccn1 [SORAFENIB]
Activity (Hep 3B2 [1]): 84.9%
Activity (Hep 3B2 [3]): 4%
inhibition at 24 h, 25 µM [34]: 41.4%
Activity (Hep 3B2 [4]): 5.3%
IC50 (HUVEC): 40.6 µM
Activity (Hep 3B2 [6]): 5%
Activity (Hep 3B2 [7]): 15%
Activity (Hep 3B2 [8]): 2.3%
Activity (Hep 3B2 [9]): 2%
Activity (Hep 3B2 [10]): 13.7%
Activity (Hep 3B2 [11]): 5.2%
Activity (Hep 3B2 [12]): 7.2%
Activity (Hep 3B2 [13]): 27.8%
Activity (Hep 3B2 [14]): 19.8%
Activity (Hep 3B2 [15]): 1.3%
Activity (Hep 3B2 [17]): 13.6%
Activity (Hep 3B2 [18]): 6.1%
Activity (Hep 3B2 [19]): 13.7%
Activity (Hep 3B2 [35]): 68.4%
Activity (Hep 3B2 [20]): 9.6%
Activity (Hep 3B2 [22]): 3.2%
Activity (Hep 3B2 [23]): 6.9%
Activity (Hep 3B2 [24]): 45.7%
Activity (Hep 3B2 [25]): 65%
Activity (Hep 3B2 [26]): 11.8%
Activity (Hep 3B2 [27]): 2.4%
Activity (Hep 3B2 [28]): Tde
Activity (Hep 3B2 [29]): 7.3%
Activity (Hep 3B2 [30]): 15.2%
Activity (Hep 3B2 [31]): 31.3%
Activity (Hep 3B2 [32]): 1.5%
Activity (Hep 3B2 [33]): 14.3%
